The structures appear in SMILES notation.

Broadly, the IC50 is the point on the concentration scale where inhibition reaches its midpoint.

What all share (test): In vitro antiproliferative activity, resazurin cell viability
Format in all cases: cell-based
(In general: The colour change of resazurin is a common sign of viable cells or microbes.)

In one experiment the test system is A549. The note with it: Homo sapiens, non-small cell lung cancer, 72 h of treatment, mean ± SEM. On the procedure:
(§1) To test the newly synthesized compounds, various human cell lines were employed. HD‐MB03 cells were purchased from DSMZ (Braunschweig, Germany), while A549, MDA‐MB‐231, RPMI‐8420, SU‐DHL‐8, TOLEDO, VL51, SU‐DHL‐1, SU‐DHL‐18, and KM‐H2 were obtained from ATCC (Manassas, VA, USA). Cells were cultured in DMEM (for MDA‐MB‐231 and A549) or RPMI‐1640 (for RPMI‐8420, SU‐DHL‐8, TOLEDO, VL51, SU‐DHL‐1, SU‐DHL‐18, KM‐H2, and HD‐MB03) media (Gibco, Milan, Italy). Both media were supplemented with 115 units/mL penicillin G (Gibco, Milan, Italy), 115 µg/mL streptomycin (Invitrogen, Milan, Italy), and 10% fetal bovine serum (Invitrogen, Milan, Italy). Peripheral blood mononuclear cells (PBMCs) were isolated from healthy donors as previously described. For cytotoxicity assays, PBMCs were resuspended at 5 × 10⁵ cells/mL in complete RPMI medium with or without 2.5 µg/mL phytohemagglutinin (PHA) (Irvine Scientific) to stimulate T‐cell activation and proliferation. All cell lines were maintained at 37°C in a humidified atmosphere containing 5% CO₂. All compounds were dissolved in DMSO at a 10 mM stock concentration. For dose–response assays, cells were seeded in 96‐well plates at densities optimized for each cell line: HD‐MB03 at 10,000 cells/well, A549 at 4000 cells/well, and MDA‐MB‐231 at 7000 cells/well. All other cell lines were seeded at 20,000 cells/well in a final volume of 100 µL per well. After 24 h, cells were treated with a 6‐point serial dilution of compounds starting from 10 µM, in triplicate for statistical analysis. Seventy‐2 h posttreatment, 10 µL of resazurin solution (100 µg/mL) was added to each well, and cells were incubated for an additional 3–6 h. Fluorescence was measured using a Spark 10 M microplate reader (Tecan Group Ltd., Männedorf, Switzerland) with excitation at 535 nm and emission at 600 nm. The IC₅₀ was defined as the concentration of compound required to inhibit cell proliferation by 50% compared to cells treated with the highest DMSO concentration.
(§2) To test the newly synthesized compounds, various human cell lines were employed. HD-MB03 cells were purchased from DSMZ (Braunschweig, Germany), while A549, MDA-MB-231, RPMI-8420, SU-DHL-8, TOLEDO, VL51, SU-DHL-1, SU-DHL-18, and KM-H2 were obtained from ATCC (Manassas, VA, USA). Cells were cultured in DMEM (for MDA-MB-231 and A549) or RPMI-1640 (for RPMI-8420, SU-DHL-8, TOLEDO, VL51, SU-DHL-1, SU-DHL-18, KM-H2, and HD-MB03) media (Gibco, Milan, Italy). Both media were supplemented with 115 units/mL penicillin G (Gibco, Milan, Italy), 115 µg/mL streptomycin (Invitrogen, Milan, Italy), and 10% fetal bovine serum (Invitrogen, Milan, Italy). Peripheral blood mononuclear cells (PBMCs) were isolated from healthy donors as previously described. ^[1] For cytotoxicity assays, PBMCs were resuspended at 5 × 10⁵ cells/mL in complete RPMI medium with or without 2.5 µg/mL phytohemagglutinin (PHA) (Irvine Scientific) to stimulate T cell activation and proliferation. All cell lines were maintained at 37 °C in a humidified atmosphere containing 5% CO₂. All compounds were dissolved in DMSO at a 10 mM stock concentration. For dose–response assays, cells were seeded in 96-well plates at densities optimized for each cell line: HD-MB03 at 10,000 cells/well, A549 at 4,000 cells/well, and MDA-MB-231 at 7,000 cells/well. All other cell lines were seeded at 20,000 cells/well in a final volume of 100 µL per well. After 24 hours, cells were treated with a 6-point serial dilution of compounds starting from 10 µM, in triplicate for statistical analysis. Seventy-two hours post-treatment, 10 µL of resazurin solution (100 µg/mL) was added to each well, and cells were incubated for an additional 3–6 hours. Fluorescence was measured using a Spark 10M microplate reader (Tecan Group Ltd., Männedorf, Switzerland) with excitation at 535 nm and emission at 600 nm. […]

Another experiment has as its system HD-MB03. The note with it: Homo sapiens, medulloblastoma cells, 72 h of treatment, mean ± SEM, at least three experiments. On the procedure: as §1, §2
The test system of the next experiment is MDA-MB-231. The note with it: Homo sapiens, triple-negative breast cancer, 72 h of treatment, mean ± SEM. On the procedure:
as §1, §2

The test system of the next experiment is RPMI-8402. The note with it: Homo sapiens, T-lymphoblastic leukemia cells, 72 h of treatment, mean ± SEM. On the procedure:
as §1, §2

The next experiment deals with SU-DHL-8. The note with it: Homo sapiens, B lymphocyte, large cell lymphoma, 72 h of treatment, mean ± SEM. On the procedure: as §1, §2

On to `O=C(Nc1ccc(C(F)(F)F)cc1)c1cc(/C=C/c2ccccc2[N+](=O)[O-])nc2ccccc12` [4ac, (E)-2-(2-nitrostyryl)-N-(4-(trifluoromethyl)phenyl)quinoline-4-carboxamide], for which the half-inhibitory concentration (IC50) in the experiment on A549, in the experiment on HD-MB03, in the experiment with MDA-MB-231, in the experiment on RPMI-8402 and with SU-DHL-8 was over 10 µM throughout.
With `Cc1ccc(NC(=O)c2cc(/C=C/c3ccccc3)nc3ccccc23)cc1` [4c, (E)-2-styryl-N-(p-tolyl)quinoline-4-carboxamide], the IC50 in the experiment with A549, in the experiment with HD-MB03, in the experiment with MDA-MB-231, in the experiment on RPMI-8402 and with SU-DHL-8 was over 10 µM each time.
In the case of `COc1cc(/C=C/c2cc(C(=O)Nc3ccc(C)cc3)c3ccccc3n2)cc(OC)c1OC` [4m, (E)-N-(p-tolyl)-2-(3,4,5-trimethoxystyryl)quinoline-4-carboxamide], the 50% inhibitory concentration (IC50) in the experiment on A549, with HD-MB03, in the experiment on MDA-MB-231, in the experiment with RPMI-8402 and in the experiment with SU-DHL-8 was over 10 µM each time.
Regarding `COc1cc(/C=C/c2cc(C(=O)Nc3ccc(C(F)(F)F)cc3)c3ccccc3n2)cc(OC)c1OC` [4r, (E)-N-(4-(trifluoromethyl)phenyl)-2-(3,4,5-trimethoxystyryl)quinoline-4-carboxamide], the 50% inhibitory concentration (IC50) with A549 was over 10 µM; in the experiment on HD-MB03 it was over 10 µM; in the experiment with MDA-MB-231, over 10 µM; in the experiment with RPMI-8402, over 10 µM; with SU-DHL-8, 2.13 ± 0.08 µM.
On to `COc1ccc(/C=C/c2cc(C(=O)Nc3ccc(Cl)cc3)c3ccccc3n2)cc1` [4ae, (E)-N-(4-chlorophenyl)-2-(4-methoxystyryl)quinoline-4-carboxamide], for which the IC50 is over 10 µM in the experiment on A549; over 10 µM in the experiment on HD-MB03; over 10 µM in the experiment on MDA-MB-231; 6.41 ± 1.16 µM with RPMI-8402; 4.67 ± 0.14 µM with SU-DHL-8.
`O=C(Nc1ccc(C(F)(F)F)cc1)c1cc(/C=C/c2cccc([N+](=O)[O-])c2)nc2ccccc12` [4ad, (E)-2-(3-nitrostyryl)-N-(4-(trifluoromethyl)phenyl)quinoline-4-carboxamide]: the half-inhibitory concentration (IC50) in the experiment with A549, in the experiment with HD-MB03, in the experiment on MDA-MB-231, in the experiment with RPMI-8402 and with SU-DHL-8 was over 10 µM each time.
Take `O=C(Nc1cccc(Cl)c1)c1cc(/C=C/c2ccccc2)nc2ccccc12` [4f, (E)-N-(3-chlorophenyl)-2-styrylquinoline-4-carboxamide]: the concentration for half-maximal inhibition (IC50) with A549 was over 10 µM; with HD-MB03, over 10 µM; in the experiment on MDA-MB-231 it was over 10 µM; in the experiment with RPMI-8402, over 10 µM; in the experiment with SU-DHL-8, 8.27 ± 0.72 µM.
As for `O=C(Nc1ccccc1)c1cc(/C=C/c2ccccc2)nc2ccccc12` [4a, (E)-N-phenyl-2-styrylquinoline-4-carboxamide], the 50% inhibitory concentration (IC50) in the experiment on A549, with HD-MB03, in the experiment with MDA-MB-231, in the experiment on RPMI-8402 and with SU-DHL-8 was over 10 µM each time.
Regarding `O=C(Nc1ccc(Cl)cc1)c1cc(/C=C/c2ccc(Cl)c(Cl)c2)nc2ccccc12` [4ag, (E)-N-(4-chlorophenyl)-2-(3,4-dichlorostyryl)quinoline-4-carboxamide], the IC50 in the experiment with A549 was determined as 7.71 ± 0.56 µM; with HD-MB03 it was 6.93 ± 0.06 µM; with MDA-MB-231, 5.52 ± 0.22 µM; in the experiment with RPMI-8402 it was 6.42 ± 0.43 µM; in the experiment on SU-DHL-8, 3.49 ± 0.11 µM.
For `COc1cc(/C=C/c2cc(C(=O)Nc3ccccc3)c3ccccc3n2)cc(OC)c1OC` [4k, (E)-N-phenyl-2-(3,4,5-trimethoxystyryl)quinoline-4-carboxamide] the same measures were over 10 µM, over 10 µM, over 10 µM, over 10 µM and 5.33 ± 0.52 µM.
The like results for `COc1cc(/C=C/c2cc(C(=O)Nc3cccc(C)c3)c3ccccc3n2)cc(OC)c1OC` [4l, (E)-N-(m-tolyl)-2-(3,4,5-trimethoxystyryl)quinoline-4-carboxamide] were, in that order, 9.34 ± 0.18 µM, over 10 µM, 5.95 ± 0.66 µM, 3.75 ± 0.18 µM and 2.94 ± 0.08 µM.
For the compound `COc1cc(/C=C/c2cc(C(=O)Nc3ccc(Cl)cc3)c3ccccc3n2)cc(OC)c1OC` [4q, (E)-N-(4-chlorophenyl)-2-(3,4,5-trimethoxystyryl)quinoline-4-carboxamide], the IC50 with A549 is over 10 µM; in the experiment on HD-MB03 it was over 10 µM; in the experiment with MDA-MB-231 it was over 10 µM; with RPMI-8402, over 10 µM; in the experiment on SU-DHL-8, 4.61 ± 0.84 µM.
On to `COc1cc(/C=C/c2cc(C(=O)Nc3cccc(Cl)c3)c3ccccc3n2)cc(OC)c1OC` [4p, (E)-N-(3-chlorophenyl)-2-(3,4,5-trimethoxystyryl)quinoline-4-carboxamide], for which the IC50 was over 10 µM in the experiment on A549; 8.31 ± 0.64 µM in the experiment on HD-MB03; 5.7 ± 0.1 µM with MDA-MB-231; 9.06 ± 0.59 µM in the experiment with RPMI-8402; 4.46 ± 0.37 µM with SU-DHL-8.
Regarding `O=C(Nc1ccc([N+](=O)[O-])c(C(F)(F)F)c1)c1cc(/C=C/c2ccc(Cl)c(Cl)c2)nc2ccccc12` [4x, (E)-2-(3,4-dichlorostyryl)-N-(4-nitro-3-(trifluoromethyl)phenyl)quinoline-4-carboxamide], the IC50 in the experiment on A549, with HD-MB03, in the experiment on MDA-MB-231, with RPMI-8402 and in the experiment on SU-DHL-8 was over 10 µM in each case.
For `COc1cc(/C=C/c2cc(C(=O)Nc3cc(OC)c(OC)c(OC)c3)c3ccccc3n2)cc(OC)c1OC` [4o, (E)-N-(3,4,5-trimethoxyphenyl)-2-(3,4,5-trimethoxystyryl)quinoline-4-carboxamide], the IC50 in the experiment with A549 was over 10 µM; in the experiment with HD-MB03, over 10 µM; in the experiment with MDA-MB-231, 5.95 ± 0.89 µM; in the experiment on RPMI-8402, 4.55 ± 0.42 µM; with SU-DHL-8 it was 2.09 ± 0.14 µM.
`O=C(Nc1ccc(Cl)cc1)c1cc(/C=C/c2ccc(Cl)cc2)nc2ccccc12` [4af, (E)-N-(4-chlorophenyl)-2-(4-chlorostyryl)quinoline-4-carboxamide]: the half-maximal inhibitory concentration (IC50) in the experiment with A549 was over 10 µM; with HD-MB03 it was over 10 µM; in the experiment on MDA-MB-231, over 10 µM; with RPMI-8402, 4.61 ± 0.24 µM; with SU-DHL-8, 4.45 ± 0.53 µM.
Take `Cc1cccc(NC(=O)c2cc(/C=C/c3ccccc3)nc3ccccc23)c1` [4b, (E)-2-styryl-N-(m-tolyl)quinoline-4-carboxamide]: the 50% inhibitory concentration (IC50) in the experiment with A549 was over 10 µM; in the experiment with HD-MB03 it was over 10 µM; with MDA-MB-231, over 10 µM; in the experiment with RPMI-8402, over 10 µM; in the experiment with SU-DHL-8 it was 5.05 ± 0.58 µM.
In the case of `O=C(Nc1ccc(Cl)cc1)c1cc(/C=C/c2ccccc2)nc2ccccc12` [4g, (E)-N-(4-chlorophenyl)-2-styrylquinoline-4-carboxamide], the IC50 in the experiment with A549 was over 10 µM; in the experiment on HD-MB03 it was over 10 µM; in the experiment with MDA-MB-231, over 10 µM; with RPMI-8402, 6.31 ± 0.36 µM; in the experiment with SU-DHL-8, 7.8 ± 1.3 µM.

The values are drawn from article PMC12645083, “Microwave‐Enhanced Synthesis of 2‐Styrylquinoline‐4‐Carboxamides With Promising Anti‐Lymphoma Activity” (Archiv Der Pharmazie, 2025).
